Test results: patent US8937068B2, “Pyridopyrazine derivatives and their use” (Zentaris GmbH, priority 2005, dated 2015)

What was measured:
Erk2 = Erk2 (Homo sapiens, UniProt P28482); assay: Cell-free kinase assay (ALPHA technology), Erk2; assay type: biochemical; details: 10 μM ATP
Protocol: The inhibitory effect of the compounds according to the invention was tested on various serine/threonine, tyrosine and lipid kinases in enzymatic assays. […] The commercial kinase proteins (Proqinase, Upstate) were used as recombinant fusion proteins with GST (glutathion-S-transferase) or His-Tag. Depending on the type of substrate, the various kinase reactions were quantified by means of suitable ALPHA™ beads (Perkin-Elmer). The substance testing is described in detail hereinafter for the Erk assay. […] a) MAPK-ALPHAs (e.g. […] The kinase reaction was then stopped by adding ALPHA bead mixes (10 μg/ml, #6760603/Perkin-Elmer) pre-incubated with 1 nM GST:Grp1 fusion protein (Upstate) and 15 nM biotinylated PIP3 (#C-39B6/Echelon) in 50 mM Hepes, 50 mM NaCl, 50 mM EDTA and 0.1% BSA and left to stand overnight. The fluorescence was detected the following morning in a Fusion™^aα-system (Perkin-Elmer). […] Eight determinations were made for each control and two for the substance samples. […] The IC50 values were determined using GraphPadPrism.

PI3Kalpha = PI3Kalpha (Homo sapiens (Human), UniProt P42336); assay: Cell-free kinase assay (ALPHA technology), PI3Kalpha; assay type: biochemical; details: 100 μM ATP
Protocol: (§1) The inhibitory effect of the compounds according to the invention was tested on various serine/threonine, tyrosine and lipid kinases in enzymatic assays. Recombinant human kinases such as, for example, Erk2, PI3Kalpha, -beta, -gamma, -delta, p38alpha, p38gamma, Jnk1, Jnk2 and others were used in this case, partly as full-length kinases, partly as shortened fragments, but at least consisting of the functional kinase domains. The commercial kinase proteins (Proqinase, Upstate) were used as recombinant fusion proteins with GST (glutathion-S-transferase) or His-Tag. Depending on the type of substrate, the various kinase reactions were quantified by means of suitable ALPHA™ beads (Perkin-Elmer).
(§2) The substance testing is described in detail hereinafter for the Erk assay.
(§3) a) MAPK-ALPHAs (e.g. Erk2): the test substance, 0.625 ng Erk2 (#14-173, Upstate), 10 μM ATP and 15 nM biotinylated MBP (myelin basic protein) substrate were incubated on a 384-well Optiplate (Perkin-Elmer) in a volume of 15 μl for 1 h in 25 mM Tris, 10 mM MgCl2, 0.1% Tween-20, 100 μM NaVO4, 2 mM DTT at pH 7.5. The kinase reaction was then stopped by adding 10 μl of the ALPHA bead mixes (10 μg/ml, #6760617/Perkin-Elmer) pre-incubated with anti-phospho MBP antibody (320 pM, #05-429/Upstate) in 25 mM Tris, 200 mM NaCl, 110 nM EDTA and 0.3% BSA and left to stand overnight. b) PI3K-ALPHAs (e.g. PI3Kalpha): the test substance, 1 ng PI3Kalpha (#14-602, Upstate), 100 μM ATP and 20 μM PIP2 substrate (#P4508, Echelon) were incubated on a 384-well Optiplate (Perkin-Elmer) for 1 h in 50 mM Hepes, 50 mM NaCl, 5 mM MgCl2, 0.05% Chaps, 5 mM DTT at pH 7.4. The kinase reaction was then stopped by adding ALPHA bead mixes (10 μg/ml, #6760603/Perkin-Elmer) pre-incubated with 1 nM GST:Grp1 fusion protein (Upstate) and 15 nM biotinylated PIP3 (#C-39B6/Echelon) in 50 mM Hepes, 50 mM NaCl, 50 mM EDTA and 0.1% BSA and left to stand overnight.
(§4) The fluorescence was detected the following morning in a Fusion™^aα-system (Perkin-Elmer).
(§5) The %-inhibition values per substance concentration were calculated by means of the following formula from the raw data determined in the Fusion™ ? :
(§6) Eight determinations were made for each control and two for the substance samples. The 0% control either contains no ATP or no substrate, the 100% control (fully active kinase) contains no test substance. The IC50 values were determined using GraphPadPrism.

p38alpha = p38alpha (Homo sapiens (Human), UniProt Q16539); assay: Cell-free kinase assay (ALPHA technology), p38alpha; assay type: biochemical; details: 10 μM ATP
Protocol: as §1, §2, §3, §4, §5, §6

Jnk1 + Jnk2 = assay: Cell-free kinase assay (ALPHA technology), Jnk1 + Jnk2; assay type: biochemical, human; details: 10 μM ATP
Protocol: as §1, §2, §3, §4, §5, §6

BxPC3 = assay: XTT assay, anti-proliferative effect, BxPC3; assay type: cell-based; details: Homo sapiens, BXPC-3; 45 h incubation
Protocol: (§7) The principle of this test is based on the intracellular reduction of the tetrazolium dye XTT (sodium 3′-[1-(phenylaminocarbonyl)-3,4-tetrazolium]-bis(4-methoxy-6-nitro)benzene sulfonic acid, Sigma) to a formazan dye by mitochondrial dehydrogenases. The dye is only formed by metabolically active cells and its photometrically measurable intensity is a quantitative indicator for the presence of living cells. The reduction of dye formation by incubation of the cells with substances serves as a parameter for the anti-proliferative effect.
(§8) The tumour cell lines (ATCC) were injected into 96-well microtitre plates in a defined cell number (5000 cells/well for BxPC3 and Hct116; 10000 cells/well for MDA MB468) and then incubated overnight in an incubator at 37° C., 5% CO2 and 95% air humidity. The test substances were prepared as stock solutions (10 mM) in DMSO. […] The cell plates were then incubated for 45 h in an incubator at 37° C., 5% CO2 and 95% air humidity.
(§9) For the detection reaction the substrate XTT was mixed with PMS (N-Methyl dibenzopyrazine methylsulfate, Sigma) and added to the cells so that a final concentration of 325 μg XTT/ml and 2.5 μg PMS/ml was obtained. It was then incubated for 3 h at 37° C., 95% air humidity. The formazan salt formed by the cellular dehydrogenases could then be quantified by adsorption at 490 nm.
(§10) The % inhibition value was evaluated by means of the following formula from the values for the optical densities measured in each case at 490 nm:
(§11) Eight determinations were made for each control and two for the substance samples. The 0% control contains no cells, the 100% control (proliferation control) contains no test substance. The EC50 values were determined using GraphPadPrism.

MDA-MB468 = assay: XTT assay, anti-proliferative effect, MDA-MB468; assay type: cell-based; details: 45 h incubation
Protocol: as §7, §8, §9, §10, §11

Hct116 = assay: XTT assay, anti-proliferative effect, Hct116; assay type: cell-based; details: 45 h incubation
Protocol: as §7, §8, §9, §10, §11

Erk → pRsk = assay: Cellular substrate phosphorylation (Western Blotting), Erk substrate pRsk; assay type: cell-based
Protocol: (§12) This method can be used to predict whether the kinase modulator under study also achieves the desired effect in a cellular context, i.e. in this case, a substrate protein downstream of the target kinase is investigated for its phosphorylation status. For this purpose, the cells incubated with substance are lysed and the total protein separated on a reducing polyacrylamide gel. The proteins are then transferred to a PVDF membrane by means of Western Blotting and the substrate bands sought are made visible with specific antibodies and a suitable detection method. The substrate proteins downstream of the target kinases are detected simultaneously with a respectively special anti-phospho-antibody and at the same time a total antibody which recognizes the substrate total protein. This simultaneous measurement can be made using the duplex technology of the ODYSSEY imagers (LiCOR). The intensity of the total substrate bands is used for normalising or quantifying the phosphorylation inhibition or activation.
(§13) Suitable tumour cell lines (e.g. BxPC3, Hct116 or MDA MB468) were injected into six-well microtitre plates in a defined cell number (e.g. 350 000 cells/well for BxPC3 and Hct116) in the respective standard complete medium and then incubated overnight at 37° C., 5% CO2 and 95% air humidity. The cells were then incubated for a further 24 h under serum-reduced conditions i.e. in the respective medium but with only 0.25% serum. The test substances were prepared as stock solutions (10 mM) in DMSO and incubated with the cells in final concentrations of 5, 15.8 and 50 μM for 5 h. This was followed by cell lysis in 25 mM Tris, 150 mM NaCl, 10 mM Na-pyrophosphate, 2 mM EGTA, 25 mM β-glycerophosphate, 25 mM NaF, 10% glycerine, 0.75% NP-40, 100 μM NaVO4 buffer. Following protein quantification by means of BCA (bicinchonic acid protein assay kit, Sigma) Assay, protein quantities of about 20 μg per track were separated on a Lämmli polyacrylamide gel and then transferred to a PVDF membrane (Millipore) by means of Semi-Dry Western-Blotting at 0.8 mA/cm^2 for 1 h. This was followed by pre-hybridisation of the membrane for 1 hour in I-block reagent (Applied Biosystems) and incubation overnight with the specific antibodies. To determine the Erk and PI3K inhibition, the respectively downstream substrates Rsk1 were detected with the total antibody (Rsk #sc-231g C-21, Santa Cruz) and the phospho-antibody (Phospho-p90RSK (S380) #9341, NEB Cell Signalling) and Akt was detected with the total antibody (Akt1 #sc-1618 C-20, Santa Cruz) and the phospho-antibody (Phospho-Akt (Ser 473) #9271, NEB Cell Signaling). After washing the membrane, secondary antibody incubation was carried out with anti-rabbit IR Dye 800 (#611-732-127, Rockland) for the phospho-antibody and anti-goat Alexa Fluor 680 (#A-21081, Molecular Probes) for the total protein-antibody. After incubating for 30 min at room temperature in the dark, the hybridisation of the detection antibody on the membrane was detected by scanning in the ODYSSEY imager (LiCOR).
(§14) The reduction of the fluorescence intensity of the phospho-substrate bands (pRsk and pAkt) is given in the table below as % inhibition and relates to the following formula:
(§15) The band intensity (fluorescence intensity) of the respective non-inhibited (without substance) phospho-substrates was used as 100% control.

PI3K → pAkt = assay: Cellular substrate phosphorylation (Western Blotting), PI3K substrate pAkt; assay type: cell-based
Protocol: as §12, §13, §14, §15

Chain of PI3Kalpha (P42336 whole entry, the tested form may be a part): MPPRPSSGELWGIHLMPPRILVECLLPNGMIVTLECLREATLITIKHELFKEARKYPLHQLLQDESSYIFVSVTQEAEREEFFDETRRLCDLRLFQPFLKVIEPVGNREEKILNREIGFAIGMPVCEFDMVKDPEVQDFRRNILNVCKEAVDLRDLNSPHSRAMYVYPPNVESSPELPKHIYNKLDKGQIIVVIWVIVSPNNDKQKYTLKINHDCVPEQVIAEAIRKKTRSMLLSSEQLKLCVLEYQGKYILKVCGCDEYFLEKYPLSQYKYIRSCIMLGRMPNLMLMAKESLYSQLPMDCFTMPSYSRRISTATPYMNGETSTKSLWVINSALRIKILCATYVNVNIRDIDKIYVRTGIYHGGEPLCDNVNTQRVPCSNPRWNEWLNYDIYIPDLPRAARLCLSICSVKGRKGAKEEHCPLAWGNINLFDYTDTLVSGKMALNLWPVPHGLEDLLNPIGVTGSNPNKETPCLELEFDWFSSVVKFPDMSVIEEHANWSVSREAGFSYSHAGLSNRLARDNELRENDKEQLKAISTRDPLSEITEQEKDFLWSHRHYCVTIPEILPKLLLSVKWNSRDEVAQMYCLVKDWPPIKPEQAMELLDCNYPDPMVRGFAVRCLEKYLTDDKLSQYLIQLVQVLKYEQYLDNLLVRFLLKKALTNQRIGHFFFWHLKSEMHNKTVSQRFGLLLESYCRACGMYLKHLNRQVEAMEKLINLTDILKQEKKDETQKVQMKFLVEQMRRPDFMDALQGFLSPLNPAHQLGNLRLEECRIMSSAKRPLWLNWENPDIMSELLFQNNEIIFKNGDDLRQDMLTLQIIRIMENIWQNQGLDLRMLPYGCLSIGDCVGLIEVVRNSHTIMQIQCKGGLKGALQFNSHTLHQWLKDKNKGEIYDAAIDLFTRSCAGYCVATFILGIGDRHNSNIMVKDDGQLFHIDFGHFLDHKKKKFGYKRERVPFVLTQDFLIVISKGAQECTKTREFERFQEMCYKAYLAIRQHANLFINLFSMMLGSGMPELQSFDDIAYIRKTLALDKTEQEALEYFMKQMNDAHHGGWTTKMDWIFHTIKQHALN
Chain of PI3Kalpha (P27986 whole entry partner, the tested form may be a part): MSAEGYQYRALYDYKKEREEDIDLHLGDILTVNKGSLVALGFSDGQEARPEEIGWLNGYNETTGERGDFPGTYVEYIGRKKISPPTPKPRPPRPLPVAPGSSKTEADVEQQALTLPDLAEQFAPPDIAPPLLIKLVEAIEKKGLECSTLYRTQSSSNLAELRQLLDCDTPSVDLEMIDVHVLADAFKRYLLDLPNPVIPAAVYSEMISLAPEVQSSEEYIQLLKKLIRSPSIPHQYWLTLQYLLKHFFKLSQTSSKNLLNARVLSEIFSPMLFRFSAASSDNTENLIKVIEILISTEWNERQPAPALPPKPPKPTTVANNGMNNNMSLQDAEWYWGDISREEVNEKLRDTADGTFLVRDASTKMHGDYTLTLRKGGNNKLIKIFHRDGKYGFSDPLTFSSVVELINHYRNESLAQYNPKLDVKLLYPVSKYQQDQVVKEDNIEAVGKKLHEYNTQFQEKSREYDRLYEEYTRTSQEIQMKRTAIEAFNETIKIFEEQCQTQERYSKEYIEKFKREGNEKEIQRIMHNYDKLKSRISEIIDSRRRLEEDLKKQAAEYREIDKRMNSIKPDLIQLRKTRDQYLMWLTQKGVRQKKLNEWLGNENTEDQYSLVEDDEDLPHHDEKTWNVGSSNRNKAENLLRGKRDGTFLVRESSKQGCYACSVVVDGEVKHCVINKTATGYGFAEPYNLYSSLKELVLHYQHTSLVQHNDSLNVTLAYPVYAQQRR
Chain of p38alpha (Q16539 whole entry): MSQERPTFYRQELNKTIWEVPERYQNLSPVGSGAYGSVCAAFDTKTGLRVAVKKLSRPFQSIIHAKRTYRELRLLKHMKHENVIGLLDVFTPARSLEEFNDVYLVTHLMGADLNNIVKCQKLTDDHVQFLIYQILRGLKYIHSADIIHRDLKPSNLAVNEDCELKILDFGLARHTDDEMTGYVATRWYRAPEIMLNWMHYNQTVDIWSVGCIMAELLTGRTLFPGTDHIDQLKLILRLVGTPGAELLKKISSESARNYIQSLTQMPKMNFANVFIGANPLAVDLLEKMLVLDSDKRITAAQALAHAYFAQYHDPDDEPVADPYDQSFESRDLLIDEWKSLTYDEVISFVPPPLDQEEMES
Chain of Erk2 (P28482 2-360 limits assumed): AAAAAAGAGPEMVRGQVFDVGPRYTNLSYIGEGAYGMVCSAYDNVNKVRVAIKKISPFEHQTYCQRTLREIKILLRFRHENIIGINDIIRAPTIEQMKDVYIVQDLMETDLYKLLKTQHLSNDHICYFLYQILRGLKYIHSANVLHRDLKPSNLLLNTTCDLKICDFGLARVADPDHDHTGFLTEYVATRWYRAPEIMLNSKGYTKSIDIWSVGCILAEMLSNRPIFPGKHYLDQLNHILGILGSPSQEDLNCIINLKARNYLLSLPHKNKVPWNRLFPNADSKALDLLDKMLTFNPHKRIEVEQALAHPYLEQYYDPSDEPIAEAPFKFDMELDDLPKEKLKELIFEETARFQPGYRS

## CCNC(=O)Nc1ccc2ncc(Nc3ccc(O)cc3)nc2n1 [Compound 164, 1-Ethyl-3-[3-(4-hydroxy-phenylamino)-pyrido[2,3-b]pyrazin-6-yl]-urea]
Erk2
  IC50: 19600 nM
PI3Kalpha
  IC50: 444 nM
p38alpha
  IC50: > 100 µM
Jnk1 + Jnk2
  IC50: 24.3 µM
BxPC3
  EC50: > 50 µM
MDA-MB468; Homo sapiens, MDA-MB-468
  EC50: 5.2 µM
Hct116; Homo sapiens, HCT-116
  EC50: > 25 µM

## CCNC(=O)Nc1ccc2ncc(-c3ccc(OP(=O)(O)O)c(OC)c3)nc2n1 [Compound 169, Phosphoric acid-mono-{4-[6-(3-ethyl-ureido)-pyrido-[2,3-b]pyrazin-3-yl]-2-methoxy-phenyl}-ester]
Erk2
  IC50: 2700 nM
PI3Kalpha
  IC50: 3700 nM
p38alpha
  IC50: > 100 µM
Jnk1 + Jnk2
  IC50: 9.5 µM
MDA-MB468; Homo sapiens, MDA-MB-468
  EC50: 5.7 µM
Hct116; Homo sapiens, HCT-116
  EC50: 2.8 µM

## CCNC(=O)Nc1ccc2ncc(Nc3cc(C)cc(C)c3)nc2n1 [Compound 191, 1-[3-(3,5-Dimethyl-phenylamino)-pyrido[2,3-b]pyrazin-6-yl]-3-ethyl-urea]
MDA-MB468; Homo sapiens, MDA-MB-468
  EC50: 8.5 µM
Hct116; Homo sapiens, HCT-116
  EC50: 5.5 µM

## C=CCNC(=S)Nc1ccc2ncc(-c3ccccc3)nc2n1 [Compound 1, 1-Allyl-3-(3-phenyl-pyrido[2,3-b]pyrazin-6-yl)-thiourea]
PI3Kalpha
  IC50: 900 nM
p38alpha
  IC50: > 31.6 µM
Jnk1 + Jnk2
  IC50: > 31.6 µM
other
  melting point: 239 to 240 °C (dec.)

## CCNC(=O)Nc1ccc2ncc(-c3ccc(O)c(OC)c3)nc2n1 [Compound 193]
Erk2
  IC50: 212 nM
PI3Kalpha
  IC50: 2200 nM
p38alpha
  IC50: > 100 µM
Jnk1 + Jnk2
  IC50: 1.5 µM
MDA-MB468
  EC50: 4.4 µM
Hct116
  EC50: 2.1 µM

## COc1cc(-c2cnc3ccc(NC(=O)NCCCCN4CCOCC4)nc3n2)ccc1O [Compound 176, 1-[3-(4-Hydroxy-3-methoxy-phenyl)-pyrido[2,3-b]pyrazin-6-yl]-3-(4-morpholin-4-yl-butyl)-urea]
MDA-MB468; Homo sapiens, MDA-MB-468
  EC50: 17 µM
Hct116; Homo sapiens, HCT-116
  EC50: 11.8 µM

## COC[C@H]1OC(=O)c2coc3c2[C@@]1(C)C1=C(C3=O)[C@@H]2CCC(=O)[C@@]2(C)C[C@H]1OC(C)=O [Wortmannin, reference compound]
Erk → pRsk; 50 μM, 5 h
  inhibition at 50 µM: 0%
Erk → pRsk; Western Blotting
  Erk inhibition / inhibition of the Erk substrate p-Rsk (in words): no Erk or p-RSK inhibition
PI3K → pAkt; 50 μM, 5 h
  inhibition at 50 µM: 100%
PI3K → pAkt; Western Blotting
  PI3K inhibition / inhibition of the PI3K substrate p-Akt (in words): complete inhibition of the PI3K substrate pAkt

## CCNC(=O)Nc1ccc2ncc(-c3cc(Cl)c(O)c(OC)c3)nc2n1 [Compound 175]
Erk2
  IC50: 191 nM
PI3Kalpha
  IC50: 458 nM
p38alpha
  IC50: > 100 µM
Jnk1 + Jnk2
  IC50: 2.5 µM
MDA-MB468
  EC50: > 50 µM
Hct116
  EC50: 4.4 µM

## C=CCNC(=O)Nc1ccc2ncc(-c3ccc(O)cc3)nc2n1 [Compound 25, 1-allyl-3-[3-(4-hydroxy-phenyl)-pyrido[2,3-b]pyrazin-6-yl]-urea]
Erk2
  IC50: 76 nM
PI3Kalpha
  IC50: 1500 nM
p38alpha
  IC50: > 100 µM
Jnk1 + Jnk2
  IC50: > 31.6 µM
other
  melting point: 240 °C (dec.)
